Assay results published in US11802120B2, “Fused cyclic urea derivatives as CRHR2 antagonist” (RaQualia Pharma Inc., priority 2018, dated 2023).

Biological target: T1, human CRHR2-alpha (Homo sapiens, UniProt Q13324)
T1 sequence (Q13324 1-411): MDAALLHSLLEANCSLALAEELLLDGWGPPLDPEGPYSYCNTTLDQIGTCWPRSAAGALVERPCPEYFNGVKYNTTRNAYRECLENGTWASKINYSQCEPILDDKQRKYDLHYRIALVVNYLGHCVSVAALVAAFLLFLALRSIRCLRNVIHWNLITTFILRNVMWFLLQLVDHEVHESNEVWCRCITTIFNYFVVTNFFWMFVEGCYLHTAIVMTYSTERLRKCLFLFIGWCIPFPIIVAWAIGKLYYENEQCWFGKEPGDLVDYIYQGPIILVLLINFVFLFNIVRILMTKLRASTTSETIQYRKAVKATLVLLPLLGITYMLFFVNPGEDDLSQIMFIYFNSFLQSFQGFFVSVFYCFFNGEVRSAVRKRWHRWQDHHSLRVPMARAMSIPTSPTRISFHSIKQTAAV
Assay: cAMP functional assay for human CRHR2 (LANCE Ultra cAMP, TR-FRET)
Format: cell-based
Conditions: CHO-K1 cells expressing human CRHR2-alpha, agonist human urocortin2 at EC80, cAMP; read-out: IC50 against CRHR2
Procedure, shortened: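 CHO-K1 cells stably expressing each receptor, serum-starved and cryopreserved, were preincubated with compound 30 min at 25° C in HBSS buffer with 0.5 mM IBMX, pH 7.4, then stimulated 30 min with EC80 agonist (urocortin2 for CRHR2, CRF for CRHR1). cAMP read by TR-FRET; IC50 from percent-inhibition curves.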

| IC50 [nM] | SMILES |
| --- | --- |
| < 300 | CNC(=O)c1ccc(-n2c(=O)n(C[C@H]3CC[C@H](NC(=O)c4cc(Cl)cnc4C(F)F)CC3)c3ccc(F)cc32)cn1 [Example 562, 5-(3-(((1r,4r)-4-(5-chloro-2-(difluororomethyl)nicotina-mido)cyclohexyl)methyl)-6-fluoro-2-oxo-2,3-dihydro-1H-benzo[d]imidazol-1-yl)-N-methylpicolinamide] |
| < 300 | O=C(N[C@H]1CC[C@H](Cn2c(=O)n(-c3cnc(OCCO)cn3)c3ccccc32)CC1)c1cc(Cl)cnc1C(F)F [Example 563, 5-chloro-2-(difluoromethyl)-N-((1r,4r)-4-((3-(5-(2-hydroxyethoxy)pyrazin-2-yl)-2-oxo-2,3-dihydro-1H-benzo[d]imidazol-1-yl)methyl)cyclohexyl)nicotinamide] |
| < 300 | Cn1ccnc1-c1ccc(-n2c(=O)n(C[C@H]3CC[C@H](NC(=O)c4cc(Cl)cnc4C(F)F)CC3)c3ccccc32)cc1 [Example 567, 5-chloro-2-(difluoromethyl)-N-((1r,4r)-4-((3-(4-(1-methyl-1H-imidazol-2-yl)phenyl)-2-oxo-2,3-dihydro-1H-benzo[d]imidazol-1-yl)methyl)cyclo-hexyl)nicotinamide] |
| < 300 | O=C(N[C@H]1CC[C@H](Cn2c(=O)n(-c3ccc(-n4ccnc4)cc3)c3ccccc32)CC1)c1cc(Cl)cnc1C(F)F [Example 569, N-((1r,4r)-4-((3-(4-(1H-imidazol-1-yl)phenyl)-2-oxo-2,3-dihydro-1H-benzo[d]imidazol-1-yl)methyl)cyclo-hexyl)-5-chloro-2-(difluoro-methyl)nicotinamide] |
| < 300 | O=C(N[C@H]1CC[C@H](Cn2c(=O)n(-c3ccnc(-n4ccnc4)c3)c3ccccc32)CC1)c1cc(Cl)cnc1C(F)F [Example 570, N-((1r,4r)-4-((3-(2-(1H-imidazol-1-yl)pyridin-4-yl)-2-oxo-2,3-dihydro-1H-benzo [d]imidazol-1-yl)methyl)cyclohexyl)-5-chloro-2-(difluoromethyl)nicotinamide] |
| < 300 | O=C(N[C@H]1CC[C@H](Cn2c(=O)n(-c3ccc(NCCO)nc3)c3ccccc32)CC1)c1cc(Cl)cnc1C(F)F [Example 571, 5-chloro-2-(difluoromethyl)-N-((1r,4r)-4-((3-(6-((2-hydroxyethyl)amino)pyridin-3-yl)-2-oxo-2,3-dihydro-1H-benzo[d]imidazol-1-yl)methyl)cyclohexyl)nicotinamide] |
| < 300 | COCCNc1ccc(-n2c(=O)n(C[C@H]3CC[C@H](NC(=O)c4cc(Cl)cnc4C(F)F)CC3)c3ccccc32)cn1 [Example 572, 5-chloro-2-(difluoromethyl)-N-((1r,4r)-4-((3-(6-((2-methoxyethyl)amino)pyridin-3-yl)-2-oxo-2,3-dihydro-1H-benzo[d]imidazol-1-yl)methyl)cyclohexyl)nicotinamide] |
| < 300 | Cc1n[nH]c2ccc(-n3c(=O)n(C[C@H]4CC[C@H](NC(=O)c5cc(Cl)cnc5C(F)F)CC4)c4cccnc43)cc12 [Example 576, 5-chloro-2-(difluoromethyl)-N-((1r,4r)-4-((3-(3-methyl-1H-indazol-5-yl)-2-oxo-2,3-dihydro-1H-imidazo[4,5-b]pyridin-1-yl)methyl)cyclo-hexyl)nicotinamide] |
| < 300 | Cc1c[nH]c2ncc(-n3c(=O)n(C[C@H]4CC[C@H](NC(=O)c5cc(Cl)cnc5C(F)F)CC4)c4ncccc43)cc12 [Example 578, 5-chloro-2-(difluoromethyl)-N-((1r,4r)-4-((1-(3-methyl-1H-pyrrolo[2,3-b]pyridin-5-yl)-2-oxo-1H-imidazo[4,5-b]pyridin-3(2H)-yl)methyl)cyclohexyl)nicotinamide] |
| < 300 | Cc1noc2cc(-n3c(=O)n(C[C@H]4CC[C@H](NC(=O)c5cc(Cl)cnc5C(F)F)CC4)c4cccnc43)ccc12 [Example 583, 5-chloro-2-(difluoromethyl)-N-((1r,4r)-4-((3-(3-methyl-benzo[d]isoxazol-6-yl)-2-oxo-2,3-dihydro-1H-imidazo [4,5-b]pyridin-1-yl)methyl)cyclohexyl)nicotinamide] |
| < 300 | O=C(N[C@H]1CC[C@H](Cn2c(=O)n(-c3ccc(N4CC5(COC5)CC4=O)nc3)c3ccccc32)CC1)c1cc(Cl)cnc1C(F)F [Example 584, 5-chloro-2-(difluoromethyl)-N-((1r,4r)-4-((2-oxo-3-(6-(7-oxo-2-oxa-6-azaspiro[3,4]octan-6-yl)pyridin-3-yl)-2,3-dihydro-1H-benzo[d]imidazol-1-yl)methyl)cyclohexyl) nicotinamide] |

The remaining lines, values behind:

| SMILES | IC50 [nM] |
| --- | --- |
| O=C(N[C@H]1CC[C@H](Cn2c(=O)n(-c3cccc(N4CCOCC4)c3)c3ccccc32)CC1)c1cc(Cl)cnc1C(F)F [Example 566, 5-chloro-2-(difluoromethyl)-N-((1r,4r)-4-((3-(3-morpholinophenyl)-2-oxo-2,3-dihydro-1H-benzo[d]imidazol-1-yl)methyl)cyclo-hexyl)nicotinamide] | < 300 |
| Cc1ncc(Cl)cc1C(=O)N[C@H]1CC[C@H](Cn2c(=O)n(-c3cccc(-c4cocn4)c3)c3ccccc32)CC1 [Example 568, 5-chloro-2-methyl-N-((1r,4r)-4-((3-(3-(oxazol-4-yl)phenyl)-2-oxo-2,3-dihydro-1H-benzo [d]imidazol-1-yl)methyl)cyclo-hexyl)nicotinamide] | < 300 |
| CNc1cc(-n2c(=O)n(C[C@H]3CC[C@H](NC(=O)c4cc(Cl)cnc4C)CC3)c3ccccc32)ccn1 [Example 573, 5-chloro-2-methyl-N-((1r,4r)-4-((3-(2-(methylamino)pyridin-4-yl)-2-oxo-2,3-dihydro-1H-benzo[d]imidazol-1-yl)methyl)cyclohexyl)nicotinamide] | < 300 |
| CNc1ccc(-n2c(=O)n(C[C@H]3CC[C@H](NC(=O)c4cc(Cl)cnc4C)CC3)c3ccccc32)nc1 [Example 574, 5-chloro-2-methyl-N-((1r,4r)-4-((3-(5-(methylamino)pyridin-2-yl)-2-oxo-2,3-dihydro-1H-benzo[d]imidazol-1-yl)methyl)cyclohexyl)nicotinamide] | < 300 |
| Cc1ncc(Cl)cc1C(=O)N[C@H]1CC[C@H](Cn2c(=O)n(-c3ccc(-c4cnn(C)c4)cc3)c3ccccc32)CC1 [Example 579, 5-chloro-2-methyl-N-((1r,4r)-4-((3-(4-(1-methyl-1H-pyrazol-4-yl)phenyl)-2-oxo-2,3-dihydro-1H-benzo[d]imidazol-1-yl)methyl)cyclo-hexyl)nicotinamide] | < 300 |
| Cc1ncc(Cl)cc1C(=O)N[C@H]1CC[C@H](Cn2c(=O)n(-c3ccc(-c4cncs4)cc3)c3ccccc32)CC1 [Example 580, 5-chloro-2-methyl-N-((1r,4r)-4-((2-oxo-3-(4-(thiazol-5-yl)phenyl)-2,3-dihydro-1H-benzo[d]imidazol-1-yl)methyl)cyclohexyl)nicotinamide] | < 300 |
| Cc1ncc(Cl)cc1C(=O)N[C@H]1CC[C@H](Cn2c(=O)n(-c3ccc(-c4cn[nH]c4)cc3)c3ccccc32)CC1 [Example 581, N-((1r,4r)-4-((3-(4-(1H-pyrazol-4-yl)phenyl)-2-oxo-2,3-dihydro-1H-benzo[d]imidazol-1-yl)methyl)cyclohexyl)-5-chloro-2-methylnicotinamide] | < 300 |
| CNC(=O)c1ccc(-n2c(=O)n(C[C@H]3CC[C@H](NC(=O)c4cc(Cl)cnc4CF)CC3)c3ccccc32)cn1 [Example 582, 5-(3-(((1r,4r)-4-(5-chloro-2-(fluoromethyl)nicotina-mido)cyclohexyl)methyl)-2-oxo-2,3-dihydro-1H-benzo[d]imidazol-1-yl)-N-methylpicolinamide] | < 300 |
